Where two headings read alike, the source gives them in different places. Where a SMILES comes first, the peptide text is derived from it. [ ]: non-standard residue; d: D form. The star is where a group is joined. ξ: configuration not given here. X1 = O=C(COc1c(-c2csc(N3CCOCC3)n2)ccc(F)c1F)NCCCCCCN*; Dip = N[C@H](C(=O)O)C(c1ccccc1)c1ccccc1; Chg = N[C@H](C(=O)O)C1CCCCC1; NMeA = CN[C@@H](C)C(=O)O; ξP = O=C(O)C1CCCN1
How the values were obtained:
22Rv1 = 22Rv1 cell proliferation assay (Experimental Example 1, cell count); format: cell-based; settings: Homo sapiens, 22Rv1, read-out: 22Rv1 cell count decrease at 10 μM for 48 hours; 10 μM (method: four days); read-out: 22Rv1 cell count decrease at 10 μM
Procedure, shortened: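 Human prostate cancer 22Rv1 cells, reported to express high levels of AR-V7, were grown in RPMI-1640 containing 10% fetal bovine serum. Test compounds were first dissolved in DMSO as 50 mM stock solutions and then diluted to the required concentrations. Proliferation was assessed as the percentage decrease in cell count.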

22Rv1-Enz^R cells = assay: 22Rv1-Enz^R cell proliferation (cell count, Experimental Example 3); format: cell-based, human
Description: The human prostate cancer cell line, 22Rv1 has been reported to express a high level of AR-V7. Thus, 22Rv1 was seeded at 50,000 cells/well on a 24-well plate in quadruplicates and treated with test compound in concentrations ranging up to 20 μM for four days. Standard culture media was RPMI-1640 supplemented with 10% fetal bovine serum. The test compound initially was dissolved in DMSO at 50 mM. This stock solution was then diluted as needed for the indicated concentrations. At the end of the four-day period, cells were harvested using 1% trypsin and counted using an automated cell counter.
(§1) Cell Culture. Human CaP cell lines, LNCaP, 22Rv1, VCaP, PC3, and DU145 are obtained from the American Type Culture Collection (ATCC) and maintained in the standard culture media: RPMI-1640 supplemented with 10% fetal bovine serum (FBS). LNCaP, 22Rv1, and VCaP are androgen-responsive cell lines, while PC3 and DU145 are not. To establish SAT resistant CaP cell lines, LNCaP, 22Rv1, and VCaP are treated continuously with 10-50 μM abiraterone, apalutamide, darolutamide, or enzalutamide. After 3-6 months, stable cell lines are established and designated as LNCaP-Abi^R, LNCaP-Apa^R, LNCaP-Daro^R, LNCaP-Enz^R, VCaP-Abi^R, VCaP-Apa^R, VCaP-Daro^R, VCaP-Enz^R, 22Rv1-Abi^R, 22Rv1-Apa^R, 22Rv1-Daro^R and 22Rv1-Enz^R. Unless otherwise specified, the standard culture media for these SAT-resistant cell lines included 10 μM of their respective SAT. For the proteasome inhibitor study, the inhibitors MG132 and Epoxomicin are used. The E3 ligase inhibitors Heclin, Nutlin 3a, Thalidomide, and VH298 are used. Cell lines obtained from ATCC are confirmed by checking their morphology using optical microscopy, establishing baselines for cell proliferation, verifying species of origin using isoenzymology, and characterizing the cell's DNA fingerprint using short tandem repeat (STR) profiling. Mycoplasma contamination is also assessed using a PCR based detection system.

AR-V7 = biological target: T1, AR-V7 (Homo sapiens, UniProt P10275); assay: Immunoblot analysis of AR-V7 protein in CaP cells (Experimental Example 3); format: cell-based; set-up: endogenous in cells; host or cells: 22Rv1 (also VCaP, LNCaP and SAT-resistant sublines)
T1 sequence (P10275 1-644 isoform P10275-3): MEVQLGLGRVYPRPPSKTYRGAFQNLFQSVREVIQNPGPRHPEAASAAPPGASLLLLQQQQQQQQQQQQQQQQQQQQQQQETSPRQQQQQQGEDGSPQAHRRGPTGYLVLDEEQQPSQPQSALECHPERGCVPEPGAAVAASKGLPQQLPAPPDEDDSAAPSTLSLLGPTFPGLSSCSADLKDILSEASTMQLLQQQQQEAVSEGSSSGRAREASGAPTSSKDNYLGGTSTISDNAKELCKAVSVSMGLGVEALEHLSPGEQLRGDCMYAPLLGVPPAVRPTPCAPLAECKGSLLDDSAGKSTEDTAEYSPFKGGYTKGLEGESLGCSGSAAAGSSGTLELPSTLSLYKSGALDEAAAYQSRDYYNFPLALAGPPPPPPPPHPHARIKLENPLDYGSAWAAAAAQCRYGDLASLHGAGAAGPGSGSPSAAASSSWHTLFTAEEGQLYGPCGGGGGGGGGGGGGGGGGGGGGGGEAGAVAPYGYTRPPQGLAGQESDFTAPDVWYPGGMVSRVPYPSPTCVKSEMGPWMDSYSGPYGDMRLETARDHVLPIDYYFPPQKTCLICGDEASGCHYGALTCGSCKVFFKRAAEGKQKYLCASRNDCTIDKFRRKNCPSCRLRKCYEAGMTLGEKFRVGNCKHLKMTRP
Description: as §1
Immunoblot Analysis. CaP cells are collected and lysed with the lysis buffer (20 mM Tris-HCl (pH 7.5), 150 mM NaCl, 1 mM Na2EDTA, 1 mM EGTA, 1% Triton, 2.5 mM sodium pyrophosphate, 1 mM beta-glycerophosphate, 1 mM Na3VO4, and 1 μg/ml leupeptin) containing 1 mM phenylmethylsulfonyl fluoride (PMSF). Cell lysates are then centrifuged and protein in the supernatant is quantified. After separating 25-50 μg of protein using SDS-PAGE, samples are incubated with AR-V7, GR, PR, ERα, AR-FL, ubiquitin, or β-actin antibodies. For AR-V7, AR-FL, PR, GR, and ERα immunoblots, primary antibody is diluted 1:1000 in 5% skim milk. For the β-actin immunoblot, 1:10000 diluted primary antibody is used. All membranes are incubated overnight at 4° C. Following the incubation with appropriate secondary antibody, immunoblots are analyzed using SuperSignal West Femto Maximum Sensitivity Substrate (ThermoFisher).

[1] = Body weight of tumor-bearing mice during treatment; format: in vivo
Description: The in vivo effects of the Compound of Example 16 are assessed in mice using enzalutamide-resistant CaP xenografts. First, 22Rv1-Enz^R tumor xenografts are established in nu/nu mice. Upon CaP xenograft formation (average diameter of 3 mm), mice are randomized into controls or treatment. Control mice are treated with 100 μl vehicle containing 10 mg/ml enzalutamide (n=5). The treatment group is injected with 100 μl vehicle containing 2.5 mg/ml Compound of Example 16 and 10 mg/ml enzalutamide daily directly into tumors (n=5) and tumor volumes were followed. […] Tumors are harvested and analyzed at the end of the study period.
Enzalutamide-resistant CaP tumor xenografts are established in twelve mice and three each are assigned to the following four groups: control IP (vehicle), control oral (vehicle), 8.3 mg/kg IP, and 8.3 mg/kg oral. Because these cells are resistant to enzalutamide, all animals are administered enzalutamide.

AR-V7 degradation after pretreatment with proteasome inhibitors (AR-V7; 22Rv1, 2 hours MG-132 (5 μM) and epoxomicin (1 μM), then compound at 1 μM)	DC50 (AR-V7; 22Rv1, 24 hours, immunoblot, read-out: DC50, concentration at which 50% of AR-V7 degraded in 24 hours) [µM]	concentration from which AR-V7 protein expression is decreased (immunoblot) (AR-V7; 22Rv1 cells, 24 hours, 0, 0.01, 0.1, 1 and 10 μM tested) [µM]	AR-V7 protein expression level in parental and SAT-resistant 22Rv1, VCaP and LNCaP cells (AR-V7; immunoblot, effect on AR-V7 greater than on AR-FL)	DC50 (AR-V7; 24 hours, immunoblot, read-out: DC50, concentration at which 50% of AR-V7 is degraded in 24 hours) [µM]	Compound	inhibition at 10 µM (22Rv1) [%]	22Rv1-EnzR cell count, % of control (22Rv1-Enz^R cells; 1 μM, 6 days)	AR-V7 degradation after pretreatment with E3 ubiquitin ligase inhibitors (AR-V7; 22Rv1, two hours VH 298 20 μM, heclin 10 μM, nutlin 3a 0.1 μM or thalidomide 10 μM, then compound at 1 μM)	change in weight following treatment ([1]; 8.3 mg/kg systemic dosing, four weeks)	weight of the mice during treatment ([1]; intratumoral, 22Rv1-Enz^R xenograft, 5 weeks)	reduction of 22Rv1-Enz^R cell counts after pretreatment with MG-132 (22Rv1-Enz^R cells; 10 μM, 4 days, MG-132 (5 μM) pretreatment)	changes in animal body mass ([1]; 22Rv1-Enz^R tumors, 8.3 mg/kg and 0.83 mg/kg, 7 weeks)
completely blocked	0.37	0.1	decreases the protein expression levels		Cc1ncsc1-c1ccc([C@H](C)NC(=O)[C@@H]2C[C@@H](O)CN2C(=O)[C@@H](NC(=O)CCCCNC(=O)COc2c(-c3csc(N4CCOCC4)n3)ccc(F)c2F)C(C)(C)C)cc1 [Example 16, (2S,4R)-1-((S)-2-(5-(2-(2,3-difluoro-6-(2-morpholinothiazol-4-yl)phenoxy)acetamido)pentanamido)-3,3-dimethylbutanoyl)-4-hydroxy-N-((S)-1-(4-(4-methylthiazol-5-yl)phenyl)ethyl)pyrrolidine-2-carboxamide]	< 50	about 45 % of control	only VH298 pretreatment inhibits AR-V7 degradation	no significant change in weight	did not significantly change		
				< 0.05	CN[C@@H](C)C(=O)N[C@H](C(=O)N1CCCC1C(=O)N[C@H](C(=O)NCCCCCCNC(=O)COc1c(-c2csc(N3CCOCC3)n2)ccc(F)c1F)C(c1ccccc1)c1ccccc1)C1CCCCC1 (stereo partly drawn) [Example 26, (S)-1-((S)-2-cyclohexyl-2-((S)-2-(methylamino)propanamido)acctyl)-N-((S)-1-((6-(2-(2,3-difluoro-6-(2-morpholinothiazol-4-yl)phenoxy)acetamido)hexyl)amino)-1-oxo-3,3-diphenylpropan-2-yl)pyrrolidine-2-carboxamide] (H-[NMeA][Chg][ξP][Dip]-X1)	> 50					substantially blocked	No significant changes
